Legend:
[1] = test system: 4T1 breast cancer cells; test: Liponanoparticle cell viability MTS assay, 4T1; type: cell-based; conditions: three time points
Description: In a 96 well plate, 2×10^3 cells were plated. After 4 h, cells were treated with different concentrations of free drug or lipo-nanoparticles. Cells without any treatment were kept as control. […]

[2] = test system: cisplatin-resistant cancer cell line (CP20); test: Liponanoparticle cell viability MTS assay, CP20; type: cell-based
Description: (§1) In a 96 well plate, 2×10^3 cells were plated. After 4 h, cells were treated with different concentrations of free drug or lipo-nanoparticles. Cells without any treatment were kept as control. After 48 h, cell viability was assessed using standard MTS assay according to manufacturer's instructions.

[3] = test system: Lewis Lung Carcinoma cell lines (LLC); test: MTS cell viability assay, LLC cells; type: cell-based, murine; conditions: for EC50: cisplatin-equivalent concentration; for IC50: 48 hours post-incubation, read-out: IC50 (LLC cell kill)
Description: The absorbance reflects the number of surviving cells.

[4] = test system: Lewis lung cancer cell line (LLC); test: Liponanoparticle cell viability MTS assay, LLC; type: cell-based
Description: as §1

[5] = test system: K-ras LSL/+ /Pten fl/fl ovarian adenocarcinomas; test: In vivo murine ovarian cancer tumor model (bioluminescence); set-up: species or system mice
Description: Ovarian adenocarcinomas were induced in genetically-engineered K-ras^LSL/+/Pten^fl/fl mice via intrabursal delivery of adenovirus carrying Cre recombinase, as described previously. Tumor cells were engineered to express luciferase once activated by Adeno-Cre, in order to make tumor imaging feasible before and after drug treatment.
Statistical analysis of the toxicity data was analyzed using a one-way ANOVA test with the Prism 5™ software.

[6] = test system: Lewis lung carcinoma
Description: (§2) The LLC Lung Cancer cells and 4T1 Breast Cancer cells ([…]) were implanted subcutaneously in the flanks of 4-week-old C57/BL6 and BALB/c mice (weighing 20 g, Charles River Laboratories, MA) respectively. The drug therapy was started after the tumors attained volume of 50 mm^3. […] PBS (100 μL) administered by tail-vein injection was used as a control for drug treatment. The tumor volumes and body weights were monitored on a daily basis. The animals were sacrificed when the average tumor size of the control exceeded 2000 mm^3 in the control group. The tumors were harvested immediately following sacrifice and stored in 10% formalin for further analysis. All animal procedures were approved by Harvard institutional IUCAC.
(§3) The tissues were fixed in 10% formalin, paraffin embedded, sectioned and stained with H&E at the Harvard Medical School Core Facility. Tumor and Kidney paraffin sections were deparaffinized and stained with standard TMR-red fluorescent terminal deoxynucleotidyl transferase-mediated dUTP nick end labeling (TUNEL) kit following the manufacturer's protocol (In Situ Cell Death Detection Kit, TMR Red, Roche). Images were obtained using a Nikon Eclipse TE2000 fluorescence microscope equipped with red filter.
(§4) Body weights were recorded daily to assess toxicity. In addition, livers and spleens were removed at the end of treatment to record weights and perform extensive pathological examination to assess toxicity of vital organs. Cell apoptosis in vital organs was measured using TUNNEL assay. Statistical analysis of the toxicity data was performed using a two-way ANOVA test with the Prism 5™ software.

[7] = test system: 4T1 breast cancer; conditions: mouse, in vivo
Description: as §2, §3, §4

Structure (SMILES)	effect on viability of 4T1 breast cancer cells [1]	effect on viability of CP20 cells [2]	EC50 ([3]; LLC cells, 48 h) [µM]	IC50 ([3]; LLC cells) [µM]	effect on viability of LLC cells [4]	apoptosis in the kidney (TUNEL) ([5]; 3 mg/kg or equivalent Pt concentration)	body weight ([5]; daily recording)	effect on LLC cell viability ([3]; 48 h)	concentration for complete cell kill ([3]; LLC cells)	tumor growth inhibition ([6]; dose equivalent to 1.25 mg/kg of cisplatin, three doses i.v.)	apoptosis in kidney (TUNEL) ([6]; mouse, in vivo)	apoptosis in tumor (TUNEL) ([6]; mouse, in vivo)	kidney H&E pathology ([6]; mouse, in vivo)	tumor inhibition, dose dependence ([6]; three doses i.v., 1.25 and 3 mg/kg)	apoptosis in the kidney [7]
N.N.O=C([O-])C1(C(=O)[O-])CCC1.[Pt+2] [Carboplatin, cis-Diammine-(1,1-cyclobutanedicarboxylato) platinum(II)]	least effective of all platinates tested	no effect at this concentration range	14.8 ± 0.38	14.8 ± 0.38	no effect at this concentration range	–	–	–	–	–	–	–	–	–	–
N.N.[Cl][Pt][Cl] [Cisplatin, cis-dichlorodiammineplatinum(II)]	–	only at the highest concentration	3.87 ± 0.37	3.87 ± 0.37	–	significant apoptosis in the kidney	significant loss of body weight	identical cell kill	greater than 20 uM	only a minor tumor growth inhibition	significant apoptosis	significant induction of apoptosis	significant tubular necrosis	dose-dependent tumor inhibition	significant apoptosis in the kidney

Reference: patent US10512696B2, “Nanoscale platinum compounds and methods of use thereof” (priority 2009, dated 2019)
